According to patent US20090239840A1, “AMINO SUBSTITUTED DIARYL[a,d]CYCLOHEPTENE ANALOGS AS [sequence] AGONISTS AND METHODS OF TREATMENT OF NEUROPSYCHIATRIC DISORDERS” (ACADIA PHARMACEUTICALS, INC., priority 2003, published 2009):
Like-named read-outs stand apart in the source and are kept apart here.

Assays:
[1] = target: T1, muscarinic M2 receptor (Homo sapiens, UniProt P08172); test: R-SAT functional screen, M2; format: cell-based; settings: for Emax: read-out: M2 eff (efficacy)
T1 construct: expressed in transfected cells
T1 sequence (P08172 1-466): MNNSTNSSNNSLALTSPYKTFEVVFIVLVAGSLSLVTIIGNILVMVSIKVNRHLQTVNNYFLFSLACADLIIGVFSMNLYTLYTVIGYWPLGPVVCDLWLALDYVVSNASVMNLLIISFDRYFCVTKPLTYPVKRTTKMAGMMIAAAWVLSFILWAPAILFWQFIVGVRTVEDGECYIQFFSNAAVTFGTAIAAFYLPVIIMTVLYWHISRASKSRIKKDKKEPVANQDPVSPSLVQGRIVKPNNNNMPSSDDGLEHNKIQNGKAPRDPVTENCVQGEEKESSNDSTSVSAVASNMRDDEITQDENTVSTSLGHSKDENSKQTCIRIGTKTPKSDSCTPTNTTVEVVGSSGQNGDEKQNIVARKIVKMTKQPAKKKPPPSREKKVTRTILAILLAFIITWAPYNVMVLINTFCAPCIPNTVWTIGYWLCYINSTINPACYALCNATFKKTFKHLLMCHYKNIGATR
Description: (§1) Several compounds disclosed herein were evaluated for activity at muscarinic receptors using Receptor Selection and Amplification Technology (R-SAT) as described in U.S. Pat. No. 5,707,798, the disclosure of which is incorporated herein by reference in its entirety. The efficacy (eff) and potency (expressed as pEC50) of these compounds are presented in Table 1 at M1, M2, and M3 receptors.

[2] = target: T2, muscarinic M1 receptor (Homo sapiens, UniProt P11229); test: R-SAT functional screen, M1; format: cell-based; settings: for Emax: read-out: M1 eff (efficacy); for EC50: read-out: M1 pEC50 (converted)
T2 construct: expressed in transfected cells
T2 sequence (P11229 1-460): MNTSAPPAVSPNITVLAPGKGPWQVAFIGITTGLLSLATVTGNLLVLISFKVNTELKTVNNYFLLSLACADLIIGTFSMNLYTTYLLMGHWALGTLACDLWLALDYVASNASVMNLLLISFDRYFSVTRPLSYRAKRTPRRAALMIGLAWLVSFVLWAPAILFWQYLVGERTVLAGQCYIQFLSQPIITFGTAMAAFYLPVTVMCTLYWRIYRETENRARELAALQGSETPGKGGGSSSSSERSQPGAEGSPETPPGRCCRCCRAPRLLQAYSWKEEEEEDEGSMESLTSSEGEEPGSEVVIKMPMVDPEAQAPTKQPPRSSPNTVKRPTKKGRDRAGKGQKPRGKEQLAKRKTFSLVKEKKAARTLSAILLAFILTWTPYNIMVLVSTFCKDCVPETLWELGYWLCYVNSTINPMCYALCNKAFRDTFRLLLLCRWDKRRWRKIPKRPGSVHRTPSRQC
Description: as §1

[3] = R-SAT, read-out: M2 pEC50 (converted)

## Cc1ccc2c(c1)C(N1CCNCC1)=Nc1cc(C(F)(F)F)ccc1N2 [2-Methyl-11-(piperazin-1-yl)-8-trifluoromethyl-5H-dibenzo[b,e][1,4]diazepine]
[1]; R-SAT
  Emax: 14%
[2]; R-SAT
  Emax: 15%

## Clc1ccc2c(c1)Nc1cc(Cl)ccc1C(N1CCNCC1)=N2 [3,7-Dichloro-11-(piperazin-1-yl)-5H-dibenzo[b,e][1,4]diazepine]
[1]; R-SAT
  Emax: 19%
[2]; R-SAT
  Emax: 15%

## Clc1ccc2c(c1)N=C(N1CCNCC1)c1ccc(Cl)cc1N2 [3,8-Dichloro-11-(piperazin-1-yl)-5H-dibenzo[b,e][1,4]diazepine]
[1]; R-SAT
  Emax: 58%
[1]; [3]
  EC50: 1580 nM
[2]; R-SAT
  Emax: 34%
  EC50: 126 nM

## Clc1ccc2c(c1)Nc1ccccc1N=C2N1CCNCC1 [3-Chloro-11-(piperazin-1-yl)-5H-dibenzo[b,e][1,4]diazepine]
[1]; R-SAT
  Emax: 27%
[1]; [3]
  EC50: 2000 nM
[2]; R-SAT
  Emax: 16%

## Fc1ccc2c(c1)N=C(N1CCNCC1)c1ccccc1C2 [3-Fluoro-6-piperazin-1-yl-11H-dibenzo[b,e]azepine]
[1]; R-SAT
  Emax: 55%
[1]; [3]
  EC50: 794 nM
[2]; R-SAT
  Emax: 23%

## C=CCN1c2ccc(Cl)cc2N=C(N2CCNCC2)c2ccccc21 [5-Allyl-8-chloro-11-(piperazin-1-yl)-5H-dibenzo[b,e][1,4]diazepine]
[1]; R-SAT
  Emax: 46%
[1]; [3]
  EC50: 1580 nM
[2]; R-SAT
  Emax: 12%

## Clc1ccc2c(c1)N=C(C1CCNCC1)c1ccccc1N2Cc1ccccc1 [5-Benzyl-8-chloro-11-(piperidin-4-yl)-5H-dibenzo[b,e][1,4]diazepine]
[1]; R-SAT
  Emax: 5%
[2]; R-SAT
  Emax: 12%

## Clc1cc2c(cc1Cl)Nc1ccccc1C(N1CCNCC1)=N2 [7,8-Dichloro-11-(piperazin-1-yl)-5H-dibenzo[b,e][1,4]diazepine]
[1]; R-SAT
  Emax: 8%
[2]; R-SAT
  Emax: 32%
  EC50: 79.4 nM

## CC1CC(N2CCNCC2)=Nc2cc(Br)ccc2N1 (stereo not shown) [7-Bromo-2-methyl-(piperazin-1-yl)-2,3-dihydro-1H-benzo[b][1,4]diazepine]
[1]; R-SAT
  Emax: 23%
[2]; R-SAT
  Emax: 16%

## Brc1ccc2c(c1)N=C(N1CCNCC1)CC(c1ccccc1)N2 (stereo not shown) [7-Bromo-2-phenyl-4-(piperazine-1-yl)-2,3-dihydro-1H-benzo[b][1,4]diazepine]
[1]; R-SAT
  Emax: 19%
[2]; R-SAT
  Emax: 3%

## Brc1ccc2c(c1)N=C(N1CCNCC1)CCN2 [7-Bromo-4-(piperazin-1-yl)-2,3-dihydro-1H-benzo[b][1,4]diazepine]
[1]; R-SAT
  Emax: 3%
[2]; R-SAT
  Emax: 56%
  EC50: 2510 nM

## Brc1ccc2c(c1)N=C(N1CCNCC1)C1CCCC1N2 (stereo not shown) [7-Bromo-10-(piperazin-1-yl)-1,2,3,3a,4,10a-hexahydro-benzo[b]cyclopenta[e][1,4]diazepine]
[1]; R-SAT
  Emax: 12%
[2]; R-SAT
  Emax: 50%
  EC50: 1580 nM

## Cc1ccc2c(c1)C(N1CCNCC1)=Nc1ccc(Cl)cc1N2 [7-Chloro-2-methyl-11-(piperazin-1-yl)-5H-dibenzo[b,e][1,4]diazepine]
[1]; R-SAT
  Emax: 5%
[2]; R-SAT
  Emax: -3%

## Clc1ccc2c(c1)Nc1ccccc1C(N1CCNCC1)=N2 [7-Chloro-11-(piperazin-1-yl)-5H-dibenzo[b,e][1,4]diazepine]
[1]; R-SAT
  Emax: 53%
[2]; R-SAT
  Emax: 48%
  EC50: 251 nM

## O=S(=O)(Oc1ccc2c(c1)N=C(N1CCNCC1)c1ccccc1N2)C(F)(F)F [8-(Trifluoromethanesulfonyloxy)-11-(piperazin-1-yl)-5H-dibenzo[b,e][1,4]diazepine]
[1]; R-SAT
  Emax: 62%
[1]; [3]
  EC50: 2510 nM
[2]; R-SAT
  Emax: 19%

## Clc1ccc2c(c1)C(N1CCNCC1)=Nc1cc(Br)ccc1N2 [8-Bromo-2-chloro-11-(piperazin-1-yl)-5H-dibenzo[b,e][1,4]diazepine]
[1]; R-SAT
  Emax: 29%
[1]; [3]
  EC50: 3160 nM
[2]; R-SAT
  Emax: 10%

## Cc1ccc2c(c1)C(N1CCNCC1)=Nc1cc(Br)ccc1N2 [8-Bromo-2-methyl-11-(piperazin-1-yl)-5H-dibenzo[b,e][1,4]diazepine]
[1]; R-SAT
  Emax: 44%
[2]; R-SAT
  Emax: 8%

## Clc1ccc2c(c1)Nc1ccc(Br)cc1N=C2N1CCNCC1 [8-Bromo-3-chloro-11-(piperazin-1-yl)-5H-dibenzo[b,e][1,4]diazepine]
[1]; R-SAT
  Emax: 34%
[1]; [3]
  EC50: 316 nM
[2]; R-SAT
  Emax: 31%
  EC50: 251 nM

## CN1c2ccc(Br)cc2N=C(N2CCNCC2)c2ccccc21 [8-Bromo-5-methyl-11-(piperazin-1-yl)-5H-dibenzo[b,e][1,4]diazepine]
[1]; R-SAT
  Emax: 75%
[1]; [3]
  EC50: 2510 nM
[2]; R-SAT
  Emax: 92%
  EC50: 398 nM

## O=S(=O)(Oc1ccc2c(c1)C(N1CCNCC1)=Nc1cc(Cl)ccc1N2)C(F)(F)F [8-Chloro-2-(trifluoromethanesulfonyloxy)-11-(piperazin-1-yl)-5H-dibenzo[b,e][1,4]diazepine]
[1]; R-SAT
  Emax: 16%
[2]; R-SAT
  Emax: -2%

## Fc1ccc2c(c1)C(N1CCNCC1)=Nc1cc(Cl)ccc1N2 [8-Chloro-2-fluoro-11-(piperazin-1-yl)-5H-dibenzo[b,e][1,4]diazepine]
[1]; R-SAT
  Emax: 121%
[1]; [3]
  EC50: 3160 nM
[2]; R-SAT
  Emax: 32%
  EC50: 158 nM

## COc1ccc2c(c1)C(N1CCNCC1)=Nc1cc(Cl)ccc1N2 [8-Chloro-2-methoxy-11-(piperazin-1-yl)-5H-dibenzo[b,e][1,4]diazepine]
[1]; R-SAT
  Emax: 7%
[2]; R-SAT
  Emax: 7%

## Cc1ccc2c(c1)C(N1CCNCC1)=Nc1cc(Cl)ccc1N2 [8-Chloro-2-methyl-11-(piperazin-1-yl)-5H-dibenzo[b,e][1,4]diazepine]
[1]; R-SAT
  Emax: 28%
[1]; [3]
  EC50: 1260 nM
[2]; R-SAT
  Emax: 14%

## Clc1ccc2c(c1)N=C(N1CCNCC1)c1cccnc1N2 [8-Chloro-5-piperazin-1-yl-1H-benzo[b]pyrido[2,3-e][1,4]diazepine]
[1]
  Emax: 7%
[2]; R-SAT
  EC50: 3160 nM
[2]
  Emax: 51%

## Clc1ccc2c(c1)N=C(c1cn[nH]c1)c1ccccc1N2 [8-Chloro-11-(1H-pyrazol-4-yl)-5H-dibenzo[b,e][1,4]diazepine]
[1]; R-SAT
  Emax: 3%
[2]; R-SAT
  Emax: 9%

## Clc1ccc2c(c1)N=C(N1CC3CC1CN3)c1ccccc1N2 (stereo not shown) [8-Chloro-11-(2,5-diaza-bicyclo[2.2.1]hept-2-yl)-5H-dibenzo[b,e][1,4]diazepine]
[1]; R-SAT
  Emax: 49%
[1]; [3]
  EC50: 2510 nM
[2]; R-SAT
  Emax: 34%
  EC50: 251 nM

## CC1CN(C2=Nc3cc(Cl)ccc3Nc3ccccc32)CC(C)N1 (stereo not shown) [8-Chloro-11-(3,5-dimethyl-piperazin-1-yl)-5H-dibenzo[b,e][1,4]diazepine]
[1]; R-SAT
  Emax: 97%
[1]; [3]
  EC50: 2510 nM
[2]; R-SAT
  Emax: 18%

## Clc1ccc2c(c1)N=C(N1CCNC(c3ccccc3)C1)c1ccccc1N2 (stereo not shown) [8-Chloro-11-(3-phenyl-piperazin-1-yl)-5H-dibenzo[b,e][1,4]diazepine]
[1]; R-SAT
  Emax: 23%
[2]; R-SAT
  Emax: 5%

## Fc1ccc(CC2=Nc3cc(Cl)ccc3Nc3ccccc32)cc1 [8-Chloro-11-(4-fluorobenzyl)-5H-dibenzo[b,e][1,4]diazepine]
[1]; R-SAT
  Emax: 7%
[2]; R-SAT
  Emax: 3%

## Fc1ccc(C2=Nc3cc(Cl)ccc3Nc3ccccc32)cc1 [8-Chloro-11-(4-fluorophenyl)-5H-dibenzo[b,e][1,4]diazepine]
[1]; R-SAT
  Emax: 4%
[2]; R-SAT
  Emax: 13%

## CN1CCCN(C2=Nc3cc(Cl)ccc3Nc3ccccc32)CC1 [8-Chloro-11-(4-methyl-[1,4]diazepam-1-yl)-5H-dibenzo[b,e][1,4]diazepine]
[1]
  EC50: 1260 nM
  Emax: 50%
[2]
  Emax: 18%
